Assay results reported in patent US9695155B2, “Herbicidal substituted pyrimidinyloxy benzene compounds” (E. I. DU PONT DE NEMOURS AND COMPANY, priority 2013, dated 2017).

Tests used:
pigweed [1] = test: Test A postemergence; format: in vivo, Amaranthus retroflexus; details: Amaranthus retroflexus, post-emergence, 0 to 100 scale where 0 is no effect and 100 is complete control
How it was run: (§1)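 Pre- and postemergence greenhouse screen. Soil: loam + sand. Spray carrier: solvent mixture, non-phytotoxic, with surfactant. Post timing at 1–2 leaves, height 2–10 cm. Readout: visual injury on a 0–100 scale roughly 10 days after application, untreated plants as reference.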

pigweed [2] = test: Test A preemergence; format: in vivo, Amaranthus retroflexus
How it was run: as §1

giant foxtail = test: Test C postemergence; format: in vivo, Setaria faberii; details: Setaria faberi, post-emergence
How it was run: (§2)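 Visual ratings on a 0–100 scale (100 = complete control) were made versus untreated controls after 13–15 greenhouse days. Chemicals in a surfactant-containing non-phytotoxic solvent were applied either preemergence to seeds in loam–sand soil or postemergence to 1- to 4-leaf plants 2–18 cm tall.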

yellow nutsedge = test: Test C postemergence; format: in vivo, Cyperus esculentus
How it was run: as §2

johnsongrass = test: Test C postemergence; format: in vivo, Sorghum halepense
How it was run: as §2

galium = test: Test C preemergence; format: in vivo, Galium aparine; details: Galium, pre-emergence
How it was run: as §2

sedge, umbrella = test: Test B flooded paddy test; format: in vivo, Cyperus difformis; details: Cyperus difformis, Flood, 250 g ai/ha; 0 to 100 scale where 0 is no effect and 100 is complete control; read-out: Plant response rating, Sedge, Umbrella
How it was run: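 Compound added straight to paddy water, with pots kept flooded 3 cm above soil, on plants grown to the 2-leaf stage. Visual scoring 0-100 (100 = complete control) against untreated controls after 13 to 15 greenhouse days.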

oilseed rape = test: Test C postemergence; format: in vivo, Brassica napus
How it was run: as §2

wheat [3] = test: Test A postemergence; format: in vivo, Triticum aestivum; details: Triticum aestivum, post-emergence, 240 h, 0 to 100 scale where 0 is no effect and 100 is complete control
How it was run: as §1

wheat [4] = test: Test A preemergence; format: in vivo, Triticum aestivum
How it was run: as §1

soybean = test: Test C postemergence; format: in vivo, Glycine max
How it was run: as §2

velvetleaf = test: Test C postemergence; format: in vivo, Abutilon theophrasti
How it was run: as §2

large (Lg) crabgrass = test: Test C postemergence; format: in vivo, Digitaria sanguinalis; details: Digitaria sanguinalis, post-emergence
How it was run: as §2

morningglory = test: Test A preemergence; format: in vivo, Ipomoea spp.
How it was run: as §1

Italian ryegrass = test: Test C preemergence; format: in vivo, Lolium multiflorum; details: Lolium multiflorum, pre-emergence, preemergence, read-out: Ryegrass, Italian plant response rating
How it was run: as §2

[5] = 31 g ai/ha, postemergence, visual rating, scale 0 to 100 (0 no effect, 100 complete control), 13 to 15 days

## FC(F)(F)c1cn(-c2ccccc2Oc2ncc(Cl)cn2)nn1 [Compound 166, 5-chloro-2-[2-[4-(trifluoromethyl)-1H-1,2,3-triazol-1-yl]phenoxy]pyrimidine]
Pigweed [1]; 500 g ai/ha, read-out: Plant response rating, Pigweed
  pest or weed control at 500 g/ha: 100%
Pigweed [1]; 240 h, 125 g ai/ha, read-out: Pigweed plant response rating
  pest or weed control at 125 g/ha: 100%
Pigweed [2]; 125 g ai/ha
  Pigweed plant response rating (0 to 100 scale): 100
Pigweed [2]; Amaranthus retroflexus, pre-emergence, 240 h, 500 g ai/ha, 0 to 100 scale where 0 is no effect and 100 is complete control, read-out: Pigweed plant response rating
  pest or weed control at 500 g/ha: 100%
Giant foxtail; 16 g ai/ha, postemergence, 0 is no effect, 100 is complete control, read-out: Plant response rating (0 to 100), Foxtail, Giant
  pest or weed control at 16 g/ha: 5%
Giant foxtail; 31 g ai/ha, postemergence, visual rating, scale 0 to 100 (0 no effect, 100 complete control), 13 to 15 days, read-out: Foxtail, Giant plant response rating
  pest or weed control at 31 g/ha: 5%
Giant foxtail; 125 g ai/ha, postemergence, visual rating, scale 0 to 100 (0 no effect, 100 complete control), read-out: Plant response rating, Foxtail, Giant
  pest or weed control at 125 g/ha: 35%
Giant foxtail; Postemergence, 62 g ai/ha, scale 0 to 100 (0 no effect, 100 complete control), read-out: Plant response rating, Foxtail, Giant
  pest or weed control at 62 g/ha: 10%
Yellow nutsedge; [5]
  Nutsedge, Yellow plant response rating: 5
Yellow nutsedge; Cyperus, post-emergence, 16 g ai/ha, postemergence, 0 is no effect, 100 is complete control, read-out: Plant response rating (0 to 100), Nutsedge, Yellow
  pest or weed control at 16 g/ha: 0%
Yellow nutsedge; Cyperus, post-emergence, 125 g ai/ha, postemergence, visual rating, scale 0 to 100 (0 no effect, 100 complete control), read-out: Plant response rating, Nutsedge, Yellow
  pest or weed control at 125 g/ha: 5%
Yellow nutsedge; Cyperus, post-emergence, Postemergence, 62 g ai/ha, scale 0 to 100 (0 no effect, 100 complete control), read-out: Plant response rating, Nutsedge, Yellow
  pest or weed control at 62 g/ha: 5%
johnsongrass; [5]
  Johnsongrass plant response rating: 5
johnsongrass; Sorghum halepense, post-emergence, 16 g ai/ha, postemergence, 0 is no effect, 100 is complete control, read-out: Plant response rating (0 to 100), Johnsongrass
  pest or weed control at 16 g/ha: 5%
johnsongrass; Sorghum halepense, post-emergence, 125 g ai/ha, postemergence, visual rating, scale 0 to 100 (0 no effect, 100 complete control), read-out: Plant response rating, Johnsongrass
  pest or weed control at 125 g/ha: 5%
johnsongrass; Sorghum halepense, post-emergence, Postemergence, 62 g ai/ha, scale 0 to 100 (0 no effect, 100 complete control), read-out: Plant response rating, Johnsongrass
  pest or weed control at 62 g/ha: 5%
galium; 16 g ai/ha, preemergence, scale 0 to 100 (0 no effect, 100 complete control), read-out: Galium plant response rating
  pest or weed control at 16 g/ha: 98%
galium; 62 g ai/ha, preemergence, scale 0 (no effect) to 100 (complete control), read-out: Galium plant response rating
  pest or weed control at 62 g/ha: 95%
galium; 125 g ai/ha, preemergence, scale 0 (no effect) to 100 (complete control), read-out: Galium plant response rating
  pest or weed control at 125 g/ha: 95%
galium; Preemergence, 31 g ai/ha, scale 0 to 100, 0 no effect, 100 complete control, read-out: Plant response rating, Galium
  pest or weed control at 31 g/ha: 100%
sedge, umbrella
  pest or weed control at 250 g/ha: 95%
Oilseed rape; [5]
  Oilseed Rape plant response rating: 90
Oilseed rape; Brassica napus, post-emergence, 16 g ai/ha, postemergence, 0 is no effect, 100 is complete control, read-out: Plant response rating (0 to 100), Oilseed Rape
  plant injury at 16 g/ha: 60%
Oilseed rape; Brassica napus, post-emergence, 125 g ai/ha, postemergence, visual rating, scale 0 to 100 (0 no effect, 100 complete control), read-out: Plant response rating, Oilseed Rape
  plant injury at 125 g/ha: 98%
Oilseed rape; Brassica napus, post-emergence, Postemergence, 62 g ai/ha, scale 0 to 100 (0 no effect, 100 complete control), read-out: Plant response rating, Oilseed Rape
  plant injury at 62 g/ha: 95%
Wheat [3]; 125 g ai/ha, read-out: Wheat plant response rating
  plant injury at 125 g/ha: 60%
Wheat [3]; 500 g ai/ha, read-out: Plant response rating, Wheat
  plant injury at 500 g/ha: 70%
Wheat [4]; 125 g ai/ha
  Wheat plant response rating (0 to 100 scale): 50
Wheat [4]; Triticum aestivum, pre-emergence, 240 h, 500 g ai/ha, 0 to 100 scale where 0 is no effect and 100 is complete control, read-out: Wheat plant response rating
  plant injury at 500 g/ha: 80%
soybean; [5]
  Soybean plant response rating: 95
soybean; Glycine max, post-emergence, 16 g ai/ha, postemergence, 0 is no effect, 100 is complete control
  Soybean plant response rating (crop injury, 0-100 scale) at 16 g/ha: 40%
soybean; Glycine max, post-emergence, 125 g ai/ha, postemergence, visual rating, scale 0 to 100 (0 no effect, 100 complete control), read-out: Plant response rating, Soybean
  Soybean plant response rating (crop injury, 0-100 scale) at 125 g/ha: 95%
soybean; Glycine max, post-emergence, Postemergence, 62 g ai/ha, scale 0 to 100 (0 no effect, 100 complete control)
  Soybean plant response rating (crop injury, 0-100 scale) at 62 g/ha: 90%
velvetleaf; [5]
  Velvetleaf plant response rating: 55
velvetleaf; Abutilon theophrasti, post-emergence, 16 g ai/ha, postemergence, 0 is no effect, 100 is complete control, read-out: Plant response rating (0 to 100), Velvetleaf
  pest or weed control at 16 g/ha: 45%
velvetleaf; Abutilon theophrasti, post-emergence, 125 g ai/ha, postemergence, visual rating, scale 0 to 100 (0 no effect, 100 complete control), read-out: Plant response rating, Velvetleaf
  pest or weed control at 125 g/ha: 85%
velvetleaf; Abutilon theophrasti, post-emergence, Postemergence, 62 g ai/ha, scale 0 to 100 (0 no effect, 100 complete control), read-out: Plant response rating, Velvetleaf
  pest or weed control at 62 g/ha: 80%
Large (Lg) crabgrass; 16 g ai/ha, postemergence, 0 is no effect, 100 is complete control, read-out: Plant response rating (0 to 100), Crabgrass, Large
  pest or weed control at 16 g/ha: 5%
Large (Lg) crabgrass; 31 g ai/ha, postemergence, visual rating, scale 0 to 100 (0 no effect, 100 complete control), 13 to 15 days, read-out: Crabgrass, Large plant response rating
  pest or weed control at 31 g/ha: 5%
Large (Lg) crabgrass; 125 g ai/ha, postemergence, visual rating, scale 0 to 100 (0 no effect, 100 complete control), read-out: Plant response rating, Crabgrass, Large
  pest or weed control at 125 g/ha: 15%
Large (Lg) crabgrass; Postemergence, 62 g ai/ha, scale 0 to 100 (0 no effect, 100 complete control), read-out: Plant response rating, Crabgrass, Large
  pest or weed control at 62 g/ha: 10%
morningglory; 125 g ai/ha
  Morningglory plant response rating (0 to 100 scale): 100
morningglory; Ipomoea, pre-emergence, 240 h, 500 g ai/ha, 0 to 100 scale where 0 is no effect and 100 is complete control, read-out: Morningglory plant response rating
  pest or weed control at 500 g/ha: 100%
Italian ryegrass; 16 g ai/ha, scale 0 to 100 (0 no effect, 100 complete control)
  pest or weed control at 16 g/ha: 5%
Italian ryegrass; 62 g ai/ha, scale 0 (no effect) to 100 (complete control)
  pest or weed control at 62 g/ha: 90%
Italian ryegrass; 125 g ai/ha, scale 0 (no effect) to 100 (complete control)
  pest or weed control at 125 g/ha: 90%
